Data set [1] concerns glycerol-induced renal failure model. The experiment in a line: renal-protecting effect (glycerol-induced renal failure model). It is filed as in vivo. Conditions: male Wistar rats; for suppression of increases of the serum creatinine and of urine-nitrogen: 0.01 - 10 mg/kg i.p., 24 hours after 50% glycerol s.c. (p < 0.05); for pathological examination of removed kidneys: state of kidneys: i.p., left kidney removed 24 hours after 50% glycerol s.c. Here is the method: A renal failure is a state wherein the renal function is lowered and the homeostasis of a body fluid can be no more maintained. It is known that an acute renal failure characteristic of uriniferous tubule disorder is caused by subcutaneous or intramuscular injection of glycerol to rats [Can. J. Physiol.
Male Wistar rats were kept deprived or water for 18 hours, and served for the test. A test compound was intraperitoneally administered to the rats (dosage: 1 mℓ/kg) and the rats were anesthetized with ether and 50% glycerol was subcutaneously administered (dosage: 0.8mℓ/100g) to the rats, pinching the dorsal skin. Twenty four hours after the administration of glycerol, the rats were anesthetized with ether and 5 mℓ of blood were collected from the abdominal aorta. The collected blood was allowed to stand for 30 minutes or longer and then centrifuged at 3,000 rpm for 10 minutes, and the amounts of the serum creatinine and urine-nitrogen (UN) contained in the serum were determined by auto analyzer (Olympus AU510) or measured by a creatinine test Wako (Jaffé method) and UN Test Wako (diacetylmonooxime direct method). Both are manufactured by Wako Pure Chemicals Co.
On the other hand, the left kidneys of the blood-sampled rats were removed and placed in formalin-filled vial bottles, and used as samples for the pathological examination.

The subject of data set [2] is zig-zag strips of the trachea. As to the kind of experiment: effects on passive Schultz-Dale reaction (antigen-induced contraction of sensitized trachea strips). Details: species or system guinea pigs. To be noted: Cavia porcellus, read-out: Passive S-D Reaction IC₅₀. Here is the method:
After 24 hours, the guinea pigs were stunned and exsanguinated, and then trachea were removed. The zig-zag strips of the trachea were prepared by the method of Emmerson, et al. [J. Pharm. […] The strips were suspended in Krebs-Henseleit solution at 37°C […] Antigen (EWA) was then introduced in the solution (final concentration; 1μg/ml), and the contraction was measured by […] After the contraction reached stable plateau, the compounds were cumulatively added in order to get concentration-relaxation curves. […]

The subject of data set [3] is death induced by Platelet-Activating Factor (PAF). The experiment in a line: effect of inhibiting death induced by Platelet-Activating Factor (PAF). The format is in vivo. Conditions: Mus musculus; oral, dd strain mice, 40 µg/kg PAF i.v. 1 hour after administration; highest dose 100 mg/kg; read-out: MED (mg/kg) for Inhibiting Death Induced by PAF. On the procedure:
A test compound (100 mg/kg) was orally administered to dd strain mice (male animals, 28 to 32g) and 40 µg/kg of PAF (manufactured by Avanti Polar Lipids Co.) was administered via tail veins 1 hour after the administration according to the method of Carlson et al. [Agents and Actions, 21, 379 (1987)]. The mortality rates of compound-treated groups were compared with those of matched control groups, assessed during the same experimental session, by the Fisher's exact probability test. The cases wherein the level of significance (p value) is 0.05 or less are considered to be effective with respect to the inhibition. The above procedure was repeated, using the test compound in a decreasingly small quantity so as to find out the Minimum Effective Dosage (MED) wherein […] be observed between the test and control groups.

A further data set deals with Wistar rats. As to the kind of experiment: diuretic effect. It is filed as in vivo. To be noted: 25 mg/kg oral, urine collected for 6 hours; for Increase in K⁺ excretion (%) / Increase in Na⁺excretion (%) / Increase in Urine (%): relative to control; for Na⁺/K⁺: relative value of control (control 1.00). On the procedure: Wistar rats (male: 150 - 300 g) were starved for 18 hours prior to the administration of the test compounds. […] Urine was collected for 6 hours after the administration. Urine volume was measured and the electrolytes (Na+ and K+) in the urine were determined with a flame photome[…], Hitachi Ltd., Japan). All parameters are expressed as relative values of control.

A further data set concerns male dd-strain mice. The experiment in a line: acute toxicity test. The format is in vivo. To be noted: mouse, in vivo, 10080 min. On the procedure:
[…]. The Minimum lethal dose (MLD) of the compounds was determined by observing whether or not the mice were alive after 7 days of the administration.

A further data set has as its target T1, Adenosine A₁ Receptor (Cavia porcellus, UniProt P47745).
T1 construct: from tissue; host or cells: guinea pig cerebrum membrane preparation
T1 sequence (P47745 1-326): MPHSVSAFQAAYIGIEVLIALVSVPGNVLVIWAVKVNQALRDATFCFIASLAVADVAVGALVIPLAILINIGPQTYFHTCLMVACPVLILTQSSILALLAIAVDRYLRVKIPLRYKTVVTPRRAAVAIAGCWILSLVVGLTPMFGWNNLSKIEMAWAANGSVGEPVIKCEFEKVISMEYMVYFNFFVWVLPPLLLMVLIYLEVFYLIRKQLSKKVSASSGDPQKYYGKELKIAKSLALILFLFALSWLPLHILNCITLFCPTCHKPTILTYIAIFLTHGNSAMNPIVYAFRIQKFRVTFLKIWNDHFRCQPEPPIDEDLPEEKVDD
The experiment in a line: Adenosine A1 receptor binding (3H-CHA binding). On the set-up: species or system guinea pig. Conditions: guinea pig cerebrum; for inhibition at 100 µM: concentration of tested compound 10⁻⁴ M; for inhibition at 100 µM / inhibition at 10 µM: ³H-CHA 1.1 nM; for inhibition at 10 µM: concentration of tested compound 10⁻⁵ M. Here is the method: Cerebrum of a guinea pig was suspended into ice cooled 50 mM tris hydroxymethyl aminomethane hydrochloride (Tris HCl) buffer (pH = 7.7), by using Polytron homogenizer (manufactured by Kinematica Co.). The suspension was centrifuged (50,000 x g, 10 minutes), and the precipitate was resuspended by adding the same volume of 50 mM Tris HCl buffer. The suspension was centrifuged under the same conditions, and the precipitate obtained was suspended once again by adding 10 volumes of 50 mM Tris HCl. The tissue suspension was incubated at 37°C for 30 minutes in the presence of 0.02 units/mg tissue of adenosine deaminase (manufactured by Sigma Co.). The resulting tissue suspension was recentrifuged (50,000 x g, 10 minutes), and 50 mM Tris HCl was added to the precipitate to adjust the concentration of tissue to 10 mg (wet weight)/mℓ.
The mixture was incubated at 25°C for 90 minutes, and the resulting reaction was stopped by rapid vacuum filtration through a glass fiber filter (GF/C manufactured by Whatman Co.) followed by immediately washing three times with 5 mℓ each of ice cold 50 mM Tris HCl buffer. […] Its radioactivity was then determined by a scintillation counter (manufactured by Packard Instrument Co.).
The inhibition rate of the test compounds against the binding of A₁ […] (³H-CHA binding) was calculated from the following equation: [formula]
• 1. […] The inhibition constant (Ki value) shown in the table was calculated from Cheng-Prusoff's equation.

The target of the next data set is T2, A₂ receptor (Rattus norvegicus, UniProt P30543).
T2 construct: A precipitate was prepared from rat corpus striatum; from tissue; host or cells: rat corpus striatum membrane preparation
T2 sequence (P30543 whole entry): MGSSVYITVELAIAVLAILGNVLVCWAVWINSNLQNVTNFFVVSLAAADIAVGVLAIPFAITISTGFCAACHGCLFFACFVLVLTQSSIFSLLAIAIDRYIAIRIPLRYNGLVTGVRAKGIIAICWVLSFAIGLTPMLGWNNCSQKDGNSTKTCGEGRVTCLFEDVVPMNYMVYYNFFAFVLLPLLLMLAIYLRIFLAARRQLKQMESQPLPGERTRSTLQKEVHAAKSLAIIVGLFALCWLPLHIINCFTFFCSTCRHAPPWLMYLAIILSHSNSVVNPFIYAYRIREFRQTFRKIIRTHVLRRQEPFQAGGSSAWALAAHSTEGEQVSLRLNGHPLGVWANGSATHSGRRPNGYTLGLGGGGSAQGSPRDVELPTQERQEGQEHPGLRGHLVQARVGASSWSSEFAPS
As to the kind of experiment: Adenosine A2 receptor binding (3H-NECA binding). Conditions: for inhibition at 10 µM / inhibition at 100 µM: read-out: A₂ Receptor Inhibition (%). On the procedure:
A precipitate was prepared from rat corpus striatum in a similar manner as in 1) above. The precipitate was suspended by adding a 50 mM Tris HCl buffer containing 10 mM magnesium chloride and 0.02 unit/mg (tissue) of adenosine deaminase (manufactured by Sigma Co.) to adjust the concentration of tissue to 5 mg (wet weight)/mℓ.
The mixture was incubated at 25°C within 120 minutes. The resulting mixture was treated in the same manner as in 1) above to determine its radioactivity.
The inhibition rate of the test compound against the binding of A₂ receptor (³H-NECA binding) was calculated from the following equation: [formula]

Setting [4] is: concentration to produce 50% relaxation of EWA (1µg/mℓ)-contracted trachea strips of passively sensitized guinea pigs.

Like-named read-outs stand apart in the source and are kept apart here.

Turning to `CCCn1c(=O)c2[nH]c(C(C)Cc3ccncc3)nc2n(CCC)c1=O` (stereo not drawn) [Compound 7, 8-[1-methyl-2-(4-pyridyl)ethyl]-1,3-dipropylxanthine], in data set [1], the “suppression of increases of the serum creatinine and of urine-nitrogen” value (“suppression of increases … of urine-nitrogen” below) is given as “significantly suppressed”; the “pathological examination of removed kidneys: state of kidneys” value (from here on “pathological examination”) is given as “significantly improved”. Besides, the IC50 in data set [2] (setting [4]) is 2.7 µM. Moreover, the minimal effective dose in data set [3] was above 100 mg/kg.
In the case of `CCCn1c(=O)c2[nH]c(C(C)Cc3csc(C)n3)nc2n(CCC)c1=O` (stereo not drawn) [Compound 8, 8-[1-Methyl-2-(2-methylthiazol-4-yl)ethyl]-1,3-dipropylxanthine], in the data set with Wistar rats, the “Increase in K⁺ excretion (%)” value is given as 22%, the “Increase in Na⁺excretion (%)” value was determined as 138%, the “Increase in Urine (%)” value turned out to be 82% and the “Na⁺/K⁺” value is 1.95. Moreover, in data set [1], the “suppression of increases … of urine-nitrogen” value was “significantly suppressed”; the “pathological examination” value is “significantly improved”. Moreover, in data set [2] (setting [4]), the IC50 amounted to 0.88 µM. In addition, in data set [3], the minimal effective dose stood at 100 mg/kg.
A word on the Ki: it is a dissociation constant, usually derived from enzyme kinetics or from competition with a known ligand. Usually inhibition stands for the relative decrease from the control value, in per cent. `CCCn1c(=O)c2[nH]c(C34CC5CC(CC(C5)C3)C4)nc2n(CCC)c1=O` [Compound 13, 8-(Adamantan-1-yl)-1,3-dipropylxanthine]: the “Minimum lethal dose (MLD)” value in the data set on male dd-strain mice is given as “more than 300 mg/kg”. Moreover, the inhibition constant Ki on Adenosine A₁ Receptor (calculated from Cheng-Prusoff's equation, ³H-CHA) is 0.0078 µM. At Adenosine A₁ Receptor, the inhibition at 100 µM worked out at 100% and the inhibition at 10 µM was found to be 100%. At A₂ receptor, the inhibition at 10 µM worked out at 63% and the inhibition at 100 µM amounted to 71%. In the data set on Wistar rats, the “Increase in K⁺ excretion (%)” value stood at 37%, the “Increase in Na⁺excretion (%)” value was determined as 186%, the “Increase in Urine (%)” value amounted to 129% and the “Na⁺/K⁺” value came to 2.09. In data set [1], the “suppression of increases … of urine-nitrogen” value was “significantly suppressed”; the “pathological examination” value is “significantly improved”.
Turning to `CCCn1c(=O)c2[nH]c(C34CC5CC(CC3C5)C4)nc2n(CCC)c1=O` [Compound 14, 8-(Noradamantan-3-yl)-1,3-dipropylxanthine], the “Minimum lethal dose (MLD)” value in the data set on male dd-strain mice is listed as “more than 300 mg/kg”. On Adenosine A₁ Receptor, the inhibition at 100 µM was determined as 101% and the inhibition at 10 µM is 101%. Further, on A₂ receptor, the inhibition at 10 µM is 63% and the inhibition at 100 µM worked out at 77%. Further, on A₂ receptor (³H-NECA with CPA, rat corpus striatum, read-out: A₂ Receptor Ki), the Ki is 0.38 µM. For the same compound, in the data set with Wistar rats, the “Increase in K⁺ excretion (%)” value is given as 68%, the “Increase in Na⁺excretion (%)” value came out at 244%, the “Increase in Urine (%)” value is recorded as 315% and the “Na⁺/K⁺” value came out at 2.05. For the same compound, in data set [1], the “suppression of increases … of urine-nitrogen” value was “significantly suppressed”; the “pathological examination” value is on record as “significantly improved”.
Take `CCCn1c(=O)[nH]c(=O)c2[nH]c(C34CC5CC(CC3C5)C4)nc21` [Compound 25, 8-(Noradamantan-3-yl)-3-propylxanthine]: in data set [1], the “suppression of increases … of urine-nitrogen” value is reported as “significantly suppressed”; the “pathological examination” value was “significantly improved”. Moreover, the IC50 in data set [2] (setting [4]) was 17.3 µM.
`CCCn1c(=O)[nH]c(=S)c2[nH]c(C34CC5CC(CC3C5)C4)nc21` [Compound 26, 8-(Noradamantan-3-yl)-3-propyl-6-thioxanthine]: the IC50 in data set [2] (setting [4]) worked out at 22.7 µM.
As for `Cn1c(=O)c2[nH]cnc2n(C)c1=O` [Theophylline, 1,3-dimethylxanthine, reference compound], the IC50 in data set [2] stood at 23 µM. The minimal effective dose in data set [3] was determined as 100 mg/kg.

These data come from EP0415456A2, “Xanthine compounds” (priority 1989, dated 1991).
